# Experimental data: patent publication US20260115187A1, “TRICYCLIC SKELETON COMPOUND AND USE THEREOF IN PREPARATION OF ANTITUMOR DRUG” (ZHONGSHAN HOSPITAL, FUDAN UNIVERSITY, priority 2024, published 2026)
# Legend:
# [1] = test system: PLC/PRF/5 KSR2 OE (PLC cells overexpressing KSR2); test: Cell IC50 assay (CCK8 cell viability), PLC/PRF/5 KSR2 OE; format: cell-based; details: Homo sapiens, PLC-PRF-5; hepatoma cells, 72 h incubation, CCK8; read-out: IC50 value of cell viability, PLC/PRF/5 KSR2 OE (PLC cells overexpressing KSR2)
# Experimental: (§1) (1) Cell Preparation: Hepatoma cells (PLC/PRF/5, sourced from the Chinese Academy of Sciences; MHCC97H, sourced from this research institute) in good growth condition are prepared. The cells are trypsinized, diluted, and seeded into 96-well cell culture plates. 1,000-3,000 cells are added per well. The plates are then placed in a cell culture incubator at 37° C. with 5% CO2. Drugs are added after the cells have adhered for 24 h.
# (§2) (2) Drug Addition: The drugs are subjected to gradient dilution, typically setting 9 concentrations. Control groups containing no drug medium and medium containing only the drug solvent are also set up. The diluted drugs are added to the cell culture plates seeded the previous day. The plates are incubated for 72 h.
# (§3) (3) CCK8 Assay for Cell Viability: CCK8 is mixed with culture medium at a 1:10 ratio. 100 μL of this mixture is added to each well of the cell culture plate. After incubating for 2-4 h, the OD values are measured using a microplate reader.
# (§4) (4) Data Analysis: Based on the corresponding OD values, the data are compiled, IC50 curves are plotted, and the IC50 values are obtained.
# (§5) (5) IC50 Verification: The theoretical IC50 value is identified from the IC50 curve. Drug concentrations at ½ times, 1 time, and 2 times this theoretical value are used for verification.
# [2] = test system: MHCC97H KSR2 OE (97H cells overexpressing KSR2); test: Cell IC50 assay (CCK8 cell viability), MHCC97H KSR2 OE; format: cell-based; details: Homo sapiens, hepatoma cells, 72 h incubation, CCK8, read-out: IC50 value of cell viability, MHCC97H KSR2 OE (97H cells overexpressing KSR2)
# Experimental: as §1, §2, §3, §4, §5
SMILES,IC50 [1] [µM],IC50 [2] [µM]
Cn1nc(C(=O)NCCCN2CCC(N3CCN(CC4CC4)CC3)CC2)c2c1-c1ccccc1SC2 [Compound 64],5,6
CN(Cc1ccccc1)C1CCN(CCCNC(=O)c2nn(C)c3c2CSc2ccccc2-3)CC1 [Compound 65],8,14
COCCN1CCN(C2CCN(CCCNC(=O)c3nn(C)c4c3CSc3ccccc3-4)CC2)CC1 [Compound 66],19,21
Cn1nc(C(=O)NCCCN2CCC(N3CCN(CCO)CC3)CC2)c2c1-c1ccccc1SC2 [Compound 67],20,24
CN1CCN(C2CCN(CCCNC(=O)c3nn(C)c4c3COc3cc(Cl)ccc3-4)CC2)CC1 [Compound 68],0.7,2
CN1CCN(C2CCN(CCCNC(=O)c3nn(C)c4c3COc3ccc(Cl)cc3-4)CC2)CC1 [Compound 69],0.6,5
Cn1nc(C(=O)NCCCN2CCC(N3CCN(CC4COC4)CC3)CC2)c2c1-c1ccccc1SC2 [Compound 70],39,9
CN1CCN(C2CCN(CCCNC(=O)c3nn(C)c4c3COc3cc(F)ccc3-4)CC2)CC1 [Compound 71],8,5
CN1CCN(C2CCN(CCCNC(=O)c3nn(C)c4c3COc3c(Cl)cccc3-4)CC2)CC1 [Compound 72],2,2
CN1CCN(C2CCN(CCCNC(=O)c3nn(C)c4c3COc3c(F)cccc3-4)CC2)CC1 [Compound 73],12,3
CN1CC2CCC(C1)N2C1CCN(CCCNC(=O)c2nn(C)c3c2CSc2ccccc2-3)CC1 [Compound 74],10,8
CN1CCN(C2CCN(CCCNC(=O)c3nn(C)c4c3CS(=O)(=O)c3ccccc3-4)CC2)CC1 [Compound 75],18,105
CN1CCN(C2CCN(CCCNC(=O)c3nn(C)c4c3COc3ccc(F)cc3-4)CC2)CC1 [Compound 76],18,22
CN1CCN(C2CN(C3CC(CNC(=O)c4nn(C)c5c4CSc4ccccc4-5)C3)C2)CC1 (stereo not drawn) [Compound 77],21,27
CN1CCN(C2CCN(C3CC(CNC(=O)c4nn(C)c5c4CSc4ccccc4-5)C3)CC2)CC1 (stereo not drawn) [Compound 78],12,6
Cn1nc(C(=O)NCCCN2CCC(N3CCN(CCC#N)CC3)CC2)c2c1-c1ccccc1SC2 [Compound 79],57,40
CCN1CCN(C2CN(C3CC(CNC(=O)c4nn(C)c5c4CSc4ccccc4-5)C3)C2)CC1 (stereo not drawn) [Compound 80],28,8
CCN1CCN(C2CN(CCCNC(=O)c3nn(C)c4c3CSc3ccccc3-4)C2)CC1 [Compound 81],26,11
CN1CCN(C2CCN(CCCNC(=O)c3nn(C)c4c3COc3ccc(C#N)cc3-4)CC2)CC1 [Compound 82],8,8

SMILES,IC50 [1] [µM],IC50 [2] [µM]
CN1CCN(C2CCN(CCCNC(=O)c3n[nH]c4c3CSc3ccccc3-4)CC2)CC1 [Compound 83],18,10
CCN1CCN(C2CCN(CCCNC(=O)c3nn(C)c4c3COc3cc(Cl)ccc3-4)CC2)CC1 [Compound 84],2,1
CN1CCN(C2CN(CCCNC(=O)c3nn(C)c4c3CSc3ccccc3-4)C2)CC1 [Compound 85],25,19
CN1CCN(C2CN(CCCNC(=O)c3nn(C)c4c3COc3cc(Cl)ccc3-4)C2)CC1 [Compound 86],6,6
CCN1CCN(C2CN(CCCNC(=O)c3nn(C)c4c3COc3cc(Cl)ccc3-4)C2)CC1 [Compound 87],6,3
CN1CCN(C2CCN(CCCNC(=O)c3nn(C4COC4)c4c3CSc3ccccc3-4)CC2)CC1 [Compound 88],22,41
CN1CCN(C2CCN(CCCNC(=O)c3c4c(nn3C3COC3)-c3ccccc3SC4)CC2)CC1 [Compound 89],15,32
CN1CCN(C2CCN(CCCNC(=O)c3nn(CC(C)(C)O)c4c3CSc3ccccc3-4)CC2)CC1 [Compound 90],21,34
CN1CCN(C2CCN(CCCNC(=O)c3nn(C)c4c3COc3cc(C(F)(F)F)ccc3-4)CC2)CC1 [Compound 91],2,4
CN1CCN(C2CCN(CCCNC(=O)c3nn(C)c4c3COc3cc(Br)ccc3-4)CC2)CC1 [Compound 92],4,4
CN1CCN(C2CCN(CCCNC(=O)c3nn(C)c4c3COc3cc(C5CC5)ccc3-4)CC2)CC1 [Compound 93],3,4
CN1CCN(C2CCN(CCCNC(=O)c3nn(C)c4c3COc3cc(C#N)ccc3-4)CC2)CC1 [Compound 94],7,10
CN1CCN(C2CCN(CCCNC(=O)c3nn(C)c4c3COc3cc(-c5cnn(C)c5)ccc3-4)CC2)CC1 [Compound 95],2,2
CN1CCN(C2CCN(CCCNC(=O)c3nn(C)c4c3CSc3cc(Cl)ccc3-4)CC2)CC1 [Compound 96],4,1
CN1CCN(C2CN(CCCNC(=O)c3nn(C)c4c3CSc3cc(Cl)ccc3-4)C2)CC1 [Compound 97],7,5
Cn1nc(C(=O)NCCCN2CC(N3CCOCC3)C2)c2c1-c1ccc(Cl)cc1OC2 [Compound 98],18,29
CN1CCN(C2CN(C3CC(CNC(=O)c4nn(C)c5c4COc4cc(Cl)ccc4-5)C3)C2)CC1 (stereo not drawn) [Compound 99],9,17
CN1CCCC12CN(CCCNC(=O)c1nn(C)c3c1CSc1ccccc1-3)C2 [Compound 100],61,71
CN1CCN(C2CCN(CCCNC(=O)c3nn(C)c4c3COc3cc(Cl)c(Br)cc3-4)CC2)CC1 [Compound 101],1,1

SMILES,IC50 [1] [µM],IC50 [2] [µM]
CN1CCN(C2CCN(CCCNC(=O)c3c4c(nn3C)-c3cc(Br)c(Cl)cc3OC4)CC2)CC1 [Compound 102],1,1
CC(C)N1CCN(C2CN(CCCNC(=O)c3nn(C)c4c3COc3cc(Cl)ccc3-4)C2)CC1 [Compound 103],5,5
Cn1nc(C(=O)NCCCN2CC(N3CC[C@H](O)C3)C2)c2c1-c1ccc(Cl)cc1OC2 [Compound 104],30,41
CN1CCN(C2CCN(CCCNC(=O)c3nn(C)c4c3COc3cc(OC(F)(F)F)ccc3-4)CC2)CC1 [Compound 105],4,3
CN1CCN(C2CN(CCCNC(=O)c3nn(C)c4c3COc3cc(OC(F)(F)F)ccc3-4)C2)CC1 [Compound 107],2,5
CN1CCN(C2CN(CCCNC(=O)c3c4c(nn3C)-c3ccc(OC(F)(F)F)cc3OC4)C2)CC1 [Compound 108],5,8
CCN1CCN(C2CN(CCCNC(=O)c3nn(C)c4c3CSc3cc(Cl)ccc3-4)C2)CC1 [Compound 109],7,10
CN1CCN(C2CN(C3CC(CNC(=O)c4nn(C)c5c4CSc4cc(Cl)ccc4-5)C3)C2)CC1 (stereo not drawn) [Compound 110],4,9
CCN1CCN(C2CN(C3CC(CNC(=O)c4nn(C)c5c4CSc4cc(Cl)ccc4-5)C3)C2)CC1 (stereo not drawn) [Compound 111],6,9
CCN1CCN(C2CN(C3CC(CNC(=O)c4nn(C)c5c4COc4cc(OC(F)(F)F)ccc4-5)C3)C2)CC1 (stereo not drawn) [Compound 112],3,4
CN1CCN(C2CCN(CCCNC(=O)c3nn(C)c4c3COc3cc(Cl)c(C#N)cc3-4)CC2)CC1 [Compound 113],1,0.8
CCN1CCN(C2CN(C3CC(CNC(=O)c4nn(C)c5c4COc4cc(Cl)ccc4-5)C3)C2)CC1 (stereo not drawn) [Compound 114],4,2
Cc1ccc2c(c1)OCc1c-2nn(C)c1C(=O)NCCCN1CC(N2CCN(C)CC2)C1 [Compound 115],43,18
Cc1ccc2c(c1)OCc1c-2nn(C)c1C(=O)NCCCN1CCC(N2CCN(C)CC2)CC1 [Compound 116],18,7
CN1CCN(C2CCN(CCCNC(=O)c3c4c(nn3C)-c3ccc(Cl)cc3OC4)CC2)CC1 [Compound 117],6,0.7
CN1CCN(C2CN(CCCNC(=O)c3c4c(nn3C)-c3ccc(Cl)cc3OC4)C2)CC1 [Compound 118],10,5
CN1CCN(C2CN(CCCNC(=O)c3nn(C)c4c3COc3cc(Cl)c(C#N)cc3-4)C2)CC1 [Compound 119],5,7
Cc1ccc2c(c1)OCc1c(C(=O)NCCCN3CCC(N4CCN(C)CC4)CC3)nn(C)c1-2 [Compound 120],8,10
Cc1ccc2c(c1)OCc1c(C(=O)NCCCN3CC(N4CCN(C)CC4)C3)nn(C)c1-2 [Compound 121],18,20
